# Experimental data from patent US8871728B2, “Non-peptide macrocyclic histone deacetylese (HDAC) inhibitors and methods of making and using thereof” (Georgia Tech Research Corporation, priority 2007, dated 2014).
# Where two headings read alike, the source gives them in different places.
# What was measured:
# [1] = tested on: HeLa nuclear extract HDAC1/2; assay: Fluor de Lys HDAC inhibition, HeLa nuclear extract; type: biochemical, human
# Description: (§1) Fluor de Lys™ is a fluorescence based HDAC activity assay comprising a combination of fluorogenic Histone deAcetylase Lysyl substrate and a developer. The kit is a highly sensitive and convenient alternative to radiolabeled, acetylated histones or peptide/HPLC methods for the assay of histone deacetylases. This assay is based on the ability of HeLa nuclear extract, which is enriched in HDAC activity, to mediate the deacetylation of the acetylated lysine side chain of the Fluor de Lys substrate. The assay procedure requires two steps. First, incubation of the HeLa nuclear extract with the Fluor de Lys substrate results in substrate deacetylation and thus sensitizes it to the second step. In the second step, treatment of the deacetylated substrate with the Fluor de Lys developer produces a fluorophore. The substrate-developer reaction, under normal circumstances goes to completion in less than 1 min at 25° C. The kit used was the Fluorimetric Assay/Drug Discovery Kit—AK-500 Manual Fluorescent Assay System available from BIOMOL® International, Plymouth Meeting, Pa.
# Each IC50 value was obtained by averaging three independent experiments.
# [2] = tested on: Plasmodium falciparum (W2 clone), chloroquine-resistant; assay: Plasmodium growth inhibition, parasite lactate dehydrogenase assay (Malstat); type: cell-based; settings: for Plasmodium falciparum (W2 clone) IC50: chloroquine-resistant; for S.I. (W2): selective toxicity index, Vero versus W2, value in brackets
# Procedure: (§2) The compounds described herein were also evaluated for parasitic activity against Plasmodium falciparum and Leismania donovani. P. falciparum and L. donovani are the causative parasites of malaria and leishmaniasis, two human diseases which constitute a serious threat to public health in tropical and sub-tropical countries. Antimalarial activity was evaluated in vitro using chloroquine-sensitive (D6, Sierra Leone) and chloroquine-resistant (W2, Indochina) strains of P. falciparum. Antileishmanial activity was evaluated in vitro against the promastigote stage of L. donovani.
# (§3) Plasmodium growth inhibition was determined by a parasite lactate dehydrogenase assay using Malstat reagent. Inhibition of viability of the promastigote stage of L. donovani was determined using standard Alamar blue assay, modified to a fluorometric assay.
# as §2, with “Macrocyclic histone deacetylase inhibitors” for “The compounds described herein”, “were” for “were also”
# as §3
# [3] = tested on: Plasmodium falciparum (D6 clone), chloroquine-sensitive; assay: as above; type: cell-based; settings: for Plasmodium falciparum (D6 clone) IC50: chloroquine-sensitive; for S.I. D6: selective toxicity index, Vero versus D6
# Procedure: as §2, §3
# as §2, with “Macrocyclic histone deacetylase inhibitors” for “The compounds described herein”, “were” for “were also”
# as §3
# [4] = biological target: HDAC6 (Homo sapiens (Human), UniProt Q9UBN7); assay: Fluor de Lys HDAC6 inhibition; type: biochemical; settings: for IC50: Table 5, read-out: HDAC 6; for HDAC6: Nuclear Extract Isoform Selectivity: ratio of IC50 HDAC6 to nuclear extract
# HDAC6, sequence (Q9UBN7 whole entry, canonical isoform): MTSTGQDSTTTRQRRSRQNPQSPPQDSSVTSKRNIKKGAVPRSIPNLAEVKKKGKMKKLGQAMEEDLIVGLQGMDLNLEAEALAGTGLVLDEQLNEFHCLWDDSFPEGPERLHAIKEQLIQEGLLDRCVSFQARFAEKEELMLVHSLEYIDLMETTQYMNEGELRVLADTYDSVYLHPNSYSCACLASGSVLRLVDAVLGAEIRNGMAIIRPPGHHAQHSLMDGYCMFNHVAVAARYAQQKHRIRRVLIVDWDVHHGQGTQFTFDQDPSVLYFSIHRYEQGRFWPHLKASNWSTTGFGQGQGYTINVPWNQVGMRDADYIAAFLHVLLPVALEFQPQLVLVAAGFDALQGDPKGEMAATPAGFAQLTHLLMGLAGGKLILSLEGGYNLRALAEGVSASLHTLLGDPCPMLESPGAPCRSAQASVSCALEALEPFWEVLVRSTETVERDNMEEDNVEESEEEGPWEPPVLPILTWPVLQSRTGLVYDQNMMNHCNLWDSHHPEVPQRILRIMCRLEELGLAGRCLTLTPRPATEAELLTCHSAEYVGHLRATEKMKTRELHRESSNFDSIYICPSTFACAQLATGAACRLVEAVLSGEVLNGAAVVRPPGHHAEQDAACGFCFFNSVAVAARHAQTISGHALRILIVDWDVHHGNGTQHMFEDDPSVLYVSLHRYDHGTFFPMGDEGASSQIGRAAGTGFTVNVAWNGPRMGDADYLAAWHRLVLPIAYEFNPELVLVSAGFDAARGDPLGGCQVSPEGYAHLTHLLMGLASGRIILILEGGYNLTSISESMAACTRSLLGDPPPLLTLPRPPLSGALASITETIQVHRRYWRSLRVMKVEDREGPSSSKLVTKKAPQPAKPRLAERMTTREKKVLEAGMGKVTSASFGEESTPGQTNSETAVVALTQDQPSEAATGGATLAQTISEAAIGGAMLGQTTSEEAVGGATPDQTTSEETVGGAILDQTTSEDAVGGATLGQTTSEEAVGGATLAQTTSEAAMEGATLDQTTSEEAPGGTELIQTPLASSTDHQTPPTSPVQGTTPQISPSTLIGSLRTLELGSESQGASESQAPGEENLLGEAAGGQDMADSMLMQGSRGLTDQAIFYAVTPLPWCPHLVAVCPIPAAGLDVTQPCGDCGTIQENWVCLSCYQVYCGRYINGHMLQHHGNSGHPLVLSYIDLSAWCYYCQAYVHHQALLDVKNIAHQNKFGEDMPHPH
# Description: as §1
# The ketolides 56 were also evaluated for their HDAC inhibitory activity against HDACs 1 and 2 from HeLa cell nuclear extract, HDAC6, and HDAC8 using the Fluor de Lys assay.
# [5] = biological target: HDAC8 (Homo sapiens (Human), UniProt Q9BY41); assay: Fluor de Lys HDAC8 inhibition; type: biochemical; settings: for IC50: read-out: HDAC 8; for HDAC8: Nuclear Extract Isoform Selectivity: ratio of IC50 HDAC8 to nuclear extract
# HDAC8, sequence (Q9BY41 whole entry, canonical isoform): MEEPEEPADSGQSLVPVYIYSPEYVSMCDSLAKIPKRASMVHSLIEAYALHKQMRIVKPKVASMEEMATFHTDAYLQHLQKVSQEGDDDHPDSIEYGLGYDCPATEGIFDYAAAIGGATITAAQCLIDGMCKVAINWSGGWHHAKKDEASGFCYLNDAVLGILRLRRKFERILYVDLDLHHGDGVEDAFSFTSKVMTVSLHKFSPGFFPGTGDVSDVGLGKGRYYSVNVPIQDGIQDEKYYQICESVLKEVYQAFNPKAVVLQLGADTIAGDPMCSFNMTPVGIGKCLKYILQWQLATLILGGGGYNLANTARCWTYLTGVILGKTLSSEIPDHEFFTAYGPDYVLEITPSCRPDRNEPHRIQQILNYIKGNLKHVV
# [6] = tested on: prostate (DU-145); assay: Cell viability, MTS colorimetric assay; type: cell-based
# Procedure: (§4) The effect of compounds 56a-e on cancer cell lines: prostate (DU-145), lung (A549), and breast cancer (MCF-7) and a non-transformed cell, human lung fibroblast cell (Hs1.Lu) were also evaluated.
# [7] = tested on: breast cancer (MCF-7); assay: Cell viability, MTS colorimetric assay; type: cell-based
# Procedure: as §4
# [8] = tested on: lung (A549); assay: Cell viability, MTS colorimetric assay; type: cell-based
# Procedure: as §4
# [9] = tested on: promastigote stage of L. donovani; assay: Antileishmanial Alamar blue fluorometric assay; type: cell-based; settings: promastigotes
# Procedure: as §2, §3
# as §2, with “Macrocyclic histone deacetylase inhibitors” for “The compounds described herein”, “were” for “were also”
# as §3
# [10] = tested on: DU 145 cells; assay: Cell viability, trypan blue exclusion; type: cell-based; settings: Homo sapiens
# Description: (§5) Most importantly, the compounds we less toxic to untransformed cell-lines (lung fibroblast and HMEC).
# (§6) Most importantly, these compounds are less toxic to untransformed cell-lines (lung fibroblast and HMEC) that we have studied to date.
# [11] = tested on: HMEC; assay: Cell viability, trypan blue exclusion; type: cell-based; settings: Homo sapiens; untransformed cells
# Description: as §5, §6
# [12] = tested on: NCI-H69; assay: Cell viability, trypan blue exclusion; type: cell-based; settings: Homo sapiens
# Description: as §5, §6
# [13] = tested on: lung fibroblasts; assay: Cell viability, trypan blue exclusion; type: cell-based; settings: Fibroblast; untransformed cells
# Description: as §5, §6
# [14] = tested on: SKMES 1; assay: Cell viability, trypan blue exclusion; type: cell-based; settings: Homo sapiens, SK-MES-1
# Description: as §5, §6
# [15] = HDACs 1 and 2 from HeLa cell nuclear extract, Table 5, read-out: Nuclear Extract
# [16] = HeLa nuclear extract, average of three independent experiments, Table 4, read-out: HDAC ½
# [17] = average of three independent experiments, Table 4
Compound,"IC50 [1, 15] [nM]",Plasmodium falciparum (W2 clone) IC50 [2] [µg/mL],S.I. (W2) [2],Plasmodium falciparum (D6 clone) IC50 [3] [µg/mL],S.I. D6 [3],IC50 [4] [nM],HDAC6: Nuclear Extract Isoform Selectivity [4],IC50 ([5]; Table 5) [nM],HDAC8: Nuclear Extract Isoform Selectivity [5],EC50 [6] [nM],EC50 [7] [nM],EC50 [8] [nM],Antileshmanial activity IC50 [9] [µg/mL],Antileshmanial activity IC90 [9] [µg/mL],"IC50 [1, 16] [nM]","IC50 [5, 17] [nM]",EC50 [10] [nM],EC50 [11] [nM],EC50 [12] [nM],EC50 [13] [nM],further results
"CCC1OC(=O)C(C)C(=O)C(C)C(OC2OC(C)CC(N(C)Cc3ccc(-c4cn(CCCCCCC(=O)NO)nn4)cc3)C2O)C(C)(OC)CC(C)C2=NCCN3C(=O)OC1(C)C3C2C (stereo not drawn) [Compound 56b, Tricyclic Ketolide-N-benzyltriazolylheptahydroxamic acid]",1.03,0.12,> 39.7,0.14,> 34,729,707.5,545,528.7,820,750,660,–,–,–,–,–,–,–,–,"Nuclear Extract (nM) ([1]; HDACs 1 and 2 from HeLa cell nuclear extract, Table 5): single digit nanomolar"
"CCC1OC(=O)C(C)C(=O)C(C)C(OC2OC(C)CC(N(C)Cc3ccc(-c4cn(CCCCCCCCC(=O)NO)nn4)cc3)C2O)C(C)(OC)CC(C)C2=NCCN3C(=O)OC1(C)C3C2C (stereo not drawn) [Compound 56d, Tricyclic Ketolide-N-benzyltriazolylnonahydroxamic acid]",164,1.30,> 3.7,1.20,> 4.0,1920,11.7,2860,17.5,3890,2560,2480,14,32,–,–,–,–,–,–,–
"CCC1OC(=O)C(C)C(=O)C(C)C(OC2OC(C)CC(N(C)Cc3ccc(-c4cn(CCCCCC(=O)NO)nn4)cc3)C2O)C(C)(OC)CC(C)C2=NCCN3C(=O)OC1(C)C3C2C (stereo not drawn) [Compound 56a, Tricyclic Ketolide-N-benzyltriazolylhexahydroxamic acid]",7.77,1.80,–,0.96,>5.0 (no value),1180,151.9,796,102.5,1640,1260,1170,–,–,–,–,–,–,–,–,–
"CC[C@H]1OC(=O)[C@H](C)[C@@H](O[C@H]2C[C@@](C)(OC)[C@@H](O)[C@H](C)O2)[C@H](C)[C@@H](O[C@@H]2O[C@H](C)C[C@H](N(C)Cc3ccc(-c4cn(CCCCCCCCC(=O)NO)nn4)cc3)[C@H]2O)[C@](C)(OC)C[C@@H](C)C(=O)[C@H](C)[C@@H](O)[C@]1(C)O [Compound 29, Clarithromycin-N-Phenyltriazolylnonahydroxamic acid]",–,–,–,–,–,–,–,–,–,–,–,–,–,–,170,10600,8140,> 10000,7290,> 10000,EC50 [14]: 7120 nM
"CCC1OC(=O)C(C)C(=O)C(C)C(OC2OC(C)CC(N(C)Cc3ccc(-c4cn(CCCCCCCC(=O)NO)nn4)cc3)C2O)C(C)(OC)CC(C)C2=NCCN3C(=O)OC1(C)C3C2C (stereo not drawn) [Compound 56c, Tricyclic Ketolide-N-benzyltriazolyloctahydroxamic acid]",104,1.50,> 3.2,1.20,> 4.0,1710,16.4,1910,18.3,3700,1350,1640,19,36,–,–,–,–,–,–,–
"CCC1OC(=O)C(C)C(=O)C(C)C(OC2OC(C)CC(N(C)Cc3ccc(-c4cn(CCCCCCCCCC(=O)NO)nn4)cc3)C2O)C(C)(OC)CC(C)C2=NCCN3C(=O)OC1(C)C3C2C (stereo not drawn) [Compound 56e, Tricyclic Ketolide-N-benzyltriazolyldecahydroxamic acid]",208,0.84,> 5.7,1.20,> 4.0,3200,15.4,4560,21.9,4830,3680,2810,4.8,23,–,–,–,–,–,–,–
"CC[C@H]1OC(=O)[C@H](C)[C@@H](O[C@H]2C[C@@](C)(OC)[C@@H](O)[C@H](C)O2)[C@H](C)[C@@H](O[C@@H]2O[C@H](C)C[C@H](N(C)Cc3ccc(-c4cn(CCCCCCC(=O)NO)nn4)cc3)[C@H]2O)[C@](C)(OC)C[C@@H](C)C(=O)[C@H](C)[C@@H](O)[C@]1(C)O [Compound 25, Clarithromycin-N-phenyltriazolylheptahydroxamic acid]",–,–,–,–,–,–,–,–,–,–,–,–,–,–,4.09,1890,1120,> 10000,1450,> 10000,EC50 [14]: 1330 nM
"CC[C@H]1OC(=O)[C@H](C)[C@@H](O[C@H]2C[C@@](C)(OC)[C@@H](O)[C@H](C)O2)[C@H](C)[C@@H](O[C@@H]2O[C@H](C)C[C@H](N(C)Cc3ccc(-c4cn(CCCCCCCC(=O)NO)nn4)cc3)[C@H]2O)[C@](C)(OC)C[C@@H](C)C(=O)[C@H](C)[C@@H](O)[C@]1(C)O [Compound 27, Clarithromycin-N-Phenyltriazolyloctahydroxamic acid]",–,–,–,–,–,–,–,–,–,–,–,–,–,–,55.6,5880,6970,> 10000,5670,> 10000,EC50 [14]: 4890 nM
